pIC50: −log10 of the molar value.

Assay [1] addresses T1, GST-TIE2 (intracellular domains of human TIE2) (Homo sapiens, UniProt Q02763).
T1 construct: made in house
The experiment in a line: TIE-2 Enzyme assay (TIE2-E), LANCE method. To be noted: GST-TIE2, 80 uM ATP, D1–15 peptide; for IC50: read-out: TIE2-E pIC50 (converted). Type of assay: biochemical. The method, then: TIE-2 Enzyme assay (TIE2-E)
Preactivated GST-TIE2 was incubated for 30 mins at room temperature in 96 well plates with 1 uM D1–15 peptide, 80 uM ATP, 10 mM MgCl2, 0.1 mg/ml BSA and the test compound (diluted from a 10 mM stock in DMSO, final DMSO concentration was 2.4%) in 1 mM HEPES (pH 7.4). The reaction was stopped by the addition of EDTA (final concentration 45 mM). Streptavidin linked-APC (allophycocyanin, Molecular Probe) and Europium-labeled anti-phosphorylated tyrosine antibody (Wallac) were then added at the final concentration of 17 ug/well and 2.1 ug/well, respectively. The APC signal was measured using an ARVO multilabel counter. (Wallac Berthold Japan). The percent inhibition of activity was calculated relative to blank control wells. […] The IC50 values were converted to pIC50 values, i.e., −log IC50 in Molar concentration.

For assay [2], the target named is T2, GST-VEGFR2 (Homo sapiens, UniProt P35968).
T2 construct: GST-VEGFR2, baculovirus expressed recombinant constructs of the intracellular domains of human TIE2 tagged by GST; made in house
Nature of the assay: VEGF-R2 Enzyme Assay (VEGF-E), LANCE method. Type of assay: biochemical. The settings on record: GST-VEGFR2, 75 uM ATP; for IC50: read-out: VEGF-E pIC50 (converted). The method, then: VEGF-R2 Enzyme Assay (VEGF-E)
The VEGF enzyme assay used the LANCE method (Wallac) and GST-VEGFR2, baculovirus expressed recombinant constructs of the intracellular domains of human […] tagged by GST. […] The reaction was stopped by the addition of EDTA (final concentration 50 mM). […] The APC signal was measured using an ARVO multilabel counter (Wallac Berthold, Japan). The percent inhibition of activity was calculated relative to blank control wells. […] The IC50 values were converted to pIC50 values, i.e., −log IC50 in Molar concentration.
On the technique in general: TR-FRET usually uses a lanthanide donor and a delayed reading to cut background.

Assay [3] concerns the target T3, TIE2 intracellular domain/c-fms extracellular domain (TIE2/c-fms) chimeric protein (Homo sapiens, UniProt Q02763).
T3 construct: TIE2 intracellular domain/c-fms extracellular domain (TIE2/c-fms) chimeric protein; expressed in transfected cells; host or cells: mouse 3T3 cells
The experiment in a line: TIE-2 Autophosphorylation Assay (TIE2-C), ELISA. Type of assay: cell-based. To be noted: TIE2/c-fms expressing mouse 3T3 cells, MCSF activation; for IC50: read-out: TIE2-C pIC50 (converted). The method, then:
TIE-2 Autophosphorylation Assay (TIE2-C)
The TIE-2 autophosphorylation assay used an ELISA method and a TIE2 intracellular domain/c-fms extracellular domain (TIE2/c-fms) chimeric protein expressing mouse 3T3 cells. This assay measured the autophosphorylation level of TIE2 protein expressed in cells. The cells were cultured in high glucose DMEM (Sigma) containing 10% serum at 37° C. in a humidified 10% CO2, 90% air incubator. The test compound (diluted from a 10 mM stock in DMSO, final DMSO concentration was 0.1%) was incubated with TIE2/c-fms expressing cells for 1 hr in serum free DMEM in 96 well plates followed by the activation of TIE2/c-fms receptor using c-fms ligand, MCSF (macrophage colony stimulating factor). […] The cell extracts were transferred into Rat anti-c-fms antibody coated 96 well plates and incubated for 12 hrs at 4 degrees. The extracts were removed by aspiration and the plate was incubated with biotinylated anti-phosphotyrosine antibody, PT66 (Sigma) and then with HRP (Horseradish Peroxidase)-labeled streptavidin (PIERCE). The optical density at 450 nm derived from HRP catalyzed TMB was measured with an ARVO multilabel counter. (Wallac Berthold Japan). The percent inhibition of activity was calculated relative to blank control wells. […] The IC50 values were converted to pIC50 values, i.e., −log IC50 in Molar concentration.

Assay [4] relates to Human umbilical cord endothelial cells (HUVEC). Nature of the assay: VEGF-Driven Cellular Proliferation Assay, BrdU Incorporation Assay (VEGF-C). Type of assay: cell-based. The settings on record: for IC50: Homo sapiens, read-out: VEGF-C pIC50 (converted). The method, then: VEGF-Driven Cellular Proliferation Assay. BrdU Incorporation Assay (VEGF-C)
Human umbilical cord endothelial cells (HUVEC, Clonetics, CC2519) were passaged in Type I collagen-coated 100-mm petridishes in EGM-MV medium (Clonetics, CC3125) at 37 C in a humidified 5% CO2, 95% air incubator. […] After incubation overnight at 37° C., the media were replaced with 100 ul of M199 serum-free medium containing compounds at various concentrations with 0.6% DMSO and gentamicin. The compounds were diluted in serum-free M199 medium from 10 mM stock solutions prepared in 100% DMS0. […] The cells were pulsed with bromodeoxyuridine (BrdU at 10 uM in serum-free M199) at 37° C. for an additional 24 h. […] The optical density at 450 nm was measured with a multilabel counter (ARVO SX, Wallac). The percent inhibition of cell growth was calculated relative to blank control wells. […] The IC50 values were converted to pIC50 values, i.e., −log IC50 in Molar concentration.

Assay [5] concerns the target T4, Recombinant GST-Tie2 (Homo sapiens, UniProt Q02763).
T4 construct: GST
Nature of the assay: Tie2 Fluorescence Polarization Kinase Activity Assay (TIE2-FP). To be noted: 200 μM ATP, activated Tie2, fluorescence polarization. Type of assay: biochemical. For orientation: In fluorescence polarisation assays a small probe gives low polarisation when free and higher when bound to something large.
Protocol: Tie2 Fluorescence Polarization Kinase Activity Assay: (TIE2-FP)
Activation of Recombinant Tie2 Activation:
Recombinant GST-Tie2 was activated by incubating the enzyme in 20 mM Tris-HCl, pH 7.5, 12 mM MgCl2, 100 mM NaCl, 20 μM sodium vanidate, 1 mM DTT and 300 μM ATP at room temperature for 2 hours. […] The activated enzyme was stored as aliquots at −80° C. in 20 mM Tris-HCl, pH 7.5 and 11 mM NaCl.
The final assay conditions were 50 mM HEPES, pH 7.5, 5% DMSO (when screening compounds), 200 μM ATP, 5 mM MgCl2, 1 mM DTT, 50 μM sodium vanidate, 1 nM activated enzyme, and 200 μM peptide. […] Panvera Anti-phosphotyrosine antibody (Cat#P2840) and PTK Green Tracer (Cat#P2842) were used to detect the phosphorylated peptide. […] IC50's were then determined from the % polarization using normal calculation methods.

T3 sequence (Q02763 770-1124 limits assumed, change not shown): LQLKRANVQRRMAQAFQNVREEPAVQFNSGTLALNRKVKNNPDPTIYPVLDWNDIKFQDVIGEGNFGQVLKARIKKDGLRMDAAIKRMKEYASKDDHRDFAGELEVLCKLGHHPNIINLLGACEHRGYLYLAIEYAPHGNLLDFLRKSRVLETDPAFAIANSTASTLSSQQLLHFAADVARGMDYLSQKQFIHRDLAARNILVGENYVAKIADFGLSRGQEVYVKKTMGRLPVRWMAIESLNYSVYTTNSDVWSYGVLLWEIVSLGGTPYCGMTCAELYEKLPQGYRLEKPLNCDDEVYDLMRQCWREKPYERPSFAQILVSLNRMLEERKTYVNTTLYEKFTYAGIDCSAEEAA
T3 sequence (P07333 20-517 partner limits assumed): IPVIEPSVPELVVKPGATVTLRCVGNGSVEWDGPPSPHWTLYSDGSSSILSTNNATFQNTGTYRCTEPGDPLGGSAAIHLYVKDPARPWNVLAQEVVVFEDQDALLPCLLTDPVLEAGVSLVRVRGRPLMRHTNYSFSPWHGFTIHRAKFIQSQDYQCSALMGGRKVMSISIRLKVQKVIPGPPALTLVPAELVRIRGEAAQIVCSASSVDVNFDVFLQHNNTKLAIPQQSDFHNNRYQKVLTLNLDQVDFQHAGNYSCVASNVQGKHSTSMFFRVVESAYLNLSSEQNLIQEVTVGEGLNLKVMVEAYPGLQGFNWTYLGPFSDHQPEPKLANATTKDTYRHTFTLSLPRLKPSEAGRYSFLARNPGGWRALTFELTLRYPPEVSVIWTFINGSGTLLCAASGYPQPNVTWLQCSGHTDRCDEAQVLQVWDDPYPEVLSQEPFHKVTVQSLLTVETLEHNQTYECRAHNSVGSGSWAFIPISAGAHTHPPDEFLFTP
T3 sequence (P09603 33-190 partner limits assumed): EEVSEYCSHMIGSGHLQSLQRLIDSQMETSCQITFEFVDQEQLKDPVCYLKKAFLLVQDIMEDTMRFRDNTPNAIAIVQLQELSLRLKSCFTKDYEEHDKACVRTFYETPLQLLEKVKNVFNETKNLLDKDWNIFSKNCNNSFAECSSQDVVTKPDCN
T2 sequence (P35968 786-1356 limits assumed): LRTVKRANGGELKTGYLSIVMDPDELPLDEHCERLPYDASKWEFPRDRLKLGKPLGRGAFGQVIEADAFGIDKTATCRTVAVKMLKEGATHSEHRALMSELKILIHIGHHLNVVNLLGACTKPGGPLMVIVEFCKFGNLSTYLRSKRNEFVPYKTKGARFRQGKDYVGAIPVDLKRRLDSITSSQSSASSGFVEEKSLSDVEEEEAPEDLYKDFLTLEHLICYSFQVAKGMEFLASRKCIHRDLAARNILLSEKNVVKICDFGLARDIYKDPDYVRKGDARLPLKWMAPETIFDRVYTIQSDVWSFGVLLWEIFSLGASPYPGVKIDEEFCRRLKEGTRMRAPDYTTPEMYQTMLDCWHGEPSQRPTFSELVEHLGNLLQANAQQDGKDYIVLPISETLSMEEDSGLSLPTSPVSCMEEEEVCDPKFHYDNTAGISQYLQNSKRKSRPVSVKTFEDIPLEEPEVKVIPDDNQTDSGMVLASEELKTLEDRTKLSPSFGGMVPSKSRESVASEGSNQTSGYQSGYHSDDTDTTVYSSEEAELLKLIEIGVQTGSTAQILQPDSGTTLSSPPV
T1 sequence (Q02763 762-1104): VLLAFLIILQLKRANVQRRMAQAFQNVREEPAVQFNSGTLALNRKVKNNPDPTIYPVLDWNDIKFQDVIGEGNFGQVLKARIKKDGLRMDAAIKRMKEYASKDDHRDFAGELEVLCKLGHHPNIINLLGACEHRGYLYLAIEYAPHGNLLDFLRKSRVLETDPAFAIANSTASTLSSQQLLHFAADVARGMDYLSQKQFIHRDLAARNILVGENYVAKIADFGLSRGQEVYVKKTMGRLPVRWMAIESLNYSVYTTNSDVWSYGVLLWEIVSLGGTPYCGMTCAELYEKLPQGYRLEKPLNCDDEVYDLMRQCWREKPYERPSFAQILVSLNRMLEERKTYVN
T4 sequence (Q02763 23-1124): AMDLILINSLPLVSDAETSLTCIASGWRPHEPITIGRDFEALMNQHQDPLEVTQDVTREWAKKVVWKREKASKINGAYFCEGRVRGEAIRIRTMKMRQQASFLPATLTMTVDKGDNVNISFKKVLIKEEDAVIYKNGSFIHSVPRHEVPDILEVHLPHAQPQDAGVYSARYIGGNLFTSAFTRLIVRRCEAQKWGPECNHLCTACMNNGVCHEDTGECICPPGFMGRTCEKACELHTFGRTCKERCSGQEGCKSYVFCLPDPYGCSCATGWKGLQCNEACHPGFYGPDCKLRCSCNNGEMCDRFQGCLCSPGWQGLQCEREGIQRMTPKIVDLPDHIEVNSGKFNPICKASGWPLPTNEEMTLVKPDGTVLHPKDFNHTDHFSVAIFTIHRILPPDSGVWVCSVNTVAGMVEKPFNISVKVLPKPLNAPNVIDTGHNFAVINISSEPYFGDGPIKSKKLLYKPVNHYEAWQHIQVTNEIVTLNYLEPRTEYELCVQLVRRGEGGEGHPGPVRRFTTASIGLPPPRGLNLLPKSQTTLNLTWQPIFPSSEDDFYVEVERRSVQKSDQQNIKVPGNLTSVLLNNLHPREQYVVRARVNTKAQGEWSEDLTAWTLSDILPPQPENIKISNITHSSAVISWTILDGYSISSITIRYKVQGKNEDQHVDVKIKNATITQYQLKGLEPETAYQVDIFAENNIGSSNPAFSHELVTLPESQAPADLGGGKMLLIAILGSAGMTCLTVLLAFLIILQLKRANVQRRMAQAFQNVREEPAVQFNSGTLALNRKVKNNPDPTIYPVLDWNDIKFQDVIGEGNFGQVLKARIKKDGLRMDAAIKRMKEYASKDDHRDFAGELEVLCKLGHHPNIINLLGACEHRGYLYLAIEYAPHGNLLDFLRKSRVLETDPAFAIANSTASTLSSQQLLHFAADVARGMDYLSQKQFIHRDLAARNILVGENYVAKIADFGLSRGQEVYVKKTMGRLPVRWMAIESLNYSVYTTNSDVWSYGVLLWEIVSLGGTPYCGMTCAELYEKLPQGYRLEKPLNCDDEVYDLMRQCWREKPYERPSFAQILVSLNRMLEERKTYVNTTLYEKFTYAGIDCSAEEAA

As for “4-Amino-3-(4-(2-pyridyl)phenyl)-2-(3-sulfamoylphenyl)furo[2,3-d]pyrimidine [Example 206]”, the “TIE2-E pIC50” value in assay [1] is recorded as “++ (++ = pIC50 of 6.0–7.0)”. Besides, in assay [2], the “VEGF-E pIC50” value is on record as “+++ (+++ = pIC50 of >7.0)”. In addition, the “TIE2-C pIC50” value in assay [3] is recorded as “++ (++ = pIC50 of 6.0–7.0)”. The “VEGF-C pIC50” value in assay [4] is “+ (+ = pIC50 of 5.0–6.0)”.

Regarding “4-Amino-2-(4-fluoro-3-(methylsulfonylamino)phenyl)-3-(4-methoxyphenyl)furo[2,3-d]pyrimidine [Example 178]”, the “TIE2-E pIC50” value in assay [1] is given as “+ (+ = pIC50 of 5.0–6.0)”. Besides, the “VEGF-E pIC50” value in assay [2] is “++ (++ = pIC50 of 6.0–7.0)”. Moreover, the “TIE2-C pIC50” value in assay [3] is “++ (++ = pIC50 of 6.0–7.0)”. Moreover, the “VEGF-C pIC50” value in assay [4] is “+ (+ = pIC50 of 5.0–6.0)”.

`NC(=O)c1cccc(-c2oc3ncnc(N)c3c2-c2ccc(-c3ccccc3)cc2)c1` [Example 131, 4-Amino-3-(4-biphenyl)-2-(3-carbamoylphenyl)furo[2,3-d]pyrimidine]: the IC50 was 100 to 1000 nM in assay [1], 100 to 1000 nM in assay [2], 100 to 1000 nM in assay [3] and 1000 to 10000 nM in assay [4].

`COc1ccc(-c2oc3ncnc(N)c3c2-c2ccc(-c3ccccc3)cc2)cc1NS(C)(=O)=O` [Example 189, 4-Amino-3-(4-biphenyl)-2-(4-methoxy-3-(methylsulfonylamino)phenyl)furo[2,3-d]pyrimidine]: the IC50 in assay [1] was 100 to 1000 nM; in assay [2] it was under 100 nM; in assay [3], 100 to 1000 nM; in assay [4], 1000 to 10000 nM.

For the compound `CNS(=O)(=O)c1cccc(-c2oc3ncnc(N)c3c2-c2ccc(-c3ccccc3)cc2)c1` [Example 200, 4-Amino-3-(4-biphenyl)-2-(3-(N-methylsulfonyl)phenyl)furo[2,3-d]pyrimidine], the IC50 is 100 to 1000 nM in assay [1], under 100 nM in assay [2], 100 to 1000 nM in assay [3] and 1000 to 10000 nM in assay [4].

As to `Nc1ncnc2oc(-c3cccc(S(N)(=O)=O)c3)c(-c3ccc(-c4ccccc4)cc3)c12` [Example 166, 4-Amino-3-(4-biphenyl)-2-(3-sulfamoylphenyl)furo[2,3-d]pyrimidine], the IC50 in assay [1] is 100 to 1000 nM; in assay [2], under 100 nM; in assay [3] it was 100 to 1000 nM; in assay [4] it was 1000 to 10000 nM.

`Nc1ncnc2scc(-c3ccc(NC(=O)Nc4cc(C(F)(F)F)ccc4F)cc3)c12` [Example 276, 4-Amino-3-(4-((2-fluoro-5-(trifluoromethyl)phenyl)aminocarbonylamino)phenyl)thieno[2,3-d]pyrimidine]: the negative-log IC50 (pIC50) in assay [5] was 8.74.

As for `NC(=O)Nc1ccc(-c2oc3ncnc(N)c3c2-c2ccc(-c3ccccc3)cc2)cc1` [Example 192, 4-Amino-3-(4-biphenyl)-2-(4-(aminocarbonylamino)phenyl)furo[2,3-d]pyrimidine], the IC50 in assay [1] was 100 to 1000 nM; in assay [2], under 100 nM; in assay [3], 100 to 1000 nM; in assay [4], 1000 to 10000 nM.

As to `CN(C)CCNC(=O)Nc1cccc(-c2oc3ncnc(N)c3c2-c2ccc(-c3ccccc3)cc2)c1` [Example 159, 4-Amino-3-(4-biphenyl)-2-((3-(2-(dimethylamino)ethyl)-aminocarbonylamino)phenyl)furo-[2,3-d]pyrimidine], the IC50 in assay [1], in assay [2], in assay [3] and in assay [4] was 100 to 1000 nM throughout.

Turning to `NC(=O)Nc1cccc(-c2oc3ncnc(N)c3c2-c2ccc(-c3ccccc3)cc2)c1` [Example 184, 4-Amino-2-(3-(aminocarbonylamino)phenyl)-3-(4-biphenyl)furo[2,3-d]pyrimidine], the IC50 in assay [1] was 100 to 1000 nM; in assay [2], under 100 nM; in assay [3] it was 100 to 1000 nM; in assay [4], 1000 to 10000 nM.

Take `Nc1ncnc2oc(-c3ccoc3)c(-c3ccco3)c12` [Example 15]: the “TIE2-E pIC50” value in assay [1] is on record as “+ (+ = pIC50 of 5.0–6.0)”. For the same compound, in assay [2], the “VEGF-E pIC50” value is “++ (++ = pIC50 of 6.0–7.0)”. In addition, in assay [3], the “TIE2-C pIC50” value is listed as “+ (+ = pIC50 of 5.0–6.0)”. The “VEGF-C pIC50” value in assay [4] is “+ (+ = pIC50 of 5.0–6.0)”.

As to `Nc1ncnc2occ(-c3ccc(NC(=O)Nc4cc(C(F)(F)F)ccc4F)cc3)c12` [232 (8C), 4-Amino-3-(4-((2-fluoro-5-(trifluoromethyl)phenyl)-aminocarbonylamino)phenyl)furo[2,3-d]pyrimidine], the IC50 in assay [1], in assay [2], in assay [3] and in assay [4] was under 100 nM each time.

Consider `Cc1ccc(-c2oc3ncnc(N)c3c2-c2ccc(C)cc2)cc1` [Example 16], for which the “TIE2-E pIC50” value in assay [1] is “+ (+ = pIC50 of 5.0–6.0)”. For the same compound, in assay [2], the “VEGF-E pIC50” value is “++ (++ = pIC50 of 6.0–7.0)”. Moreover, in assay [3], the “TIE2-C pIC50” value was “+ (+ = pIC50 of 5.0–6.0)”. For the same compound, the “VEGF-C pIC50” value in assay [4] was “+ (+ = pIC50 of 5.0–6.0)”.

On to “4-Amino-3-(4-methoxyphenyl)-2-(3-sulfamoylphenyl)furo[2,3-d]pyrimidine [Example 165]”, for which the “TIE2-E pIC50” value in assay [1] was “++ (++ = pIC50 of 6.0–7.0)”. In addition, in assay [2], the “VEGF-E pIC50” value is listed as “+++ (+++ = pIC50 of >7.0)”. Besides, in assay [3], the “TIE2-C pIC50” value is “++ (++ = pIC50 of 6.0–7.0)”. In addition, the “VEGF-C pIC50” value in assay [4] is “+ (+ = pIC50 of 5.0–6.0)”.

`COc1ccc(-c2oc3ncnc(N)c3c2-c2ccc(NC(=O)Nc3cc(C(F)(F)F)ccc3F)cc2)cc1` [Example 4]: the IC50 in assay [1], in assay [2], in assay [3] and in assay [4] was under 100 nM in each case.

With `Nc1ncnc2oc(-c3cccc(S(N)(=O)=O)c3)c(-c3ccc(-c4cccc(F)c4F)cc3)c12` [Example 5], the IC50 was 100 to 1000 nM in assay [1], under 100 nM in assay [2], 100 to 1000 nM in assay [3] and 1000 to 10000 nM in assay [4].

By pIC50 is commonly meant the IC50 on a negative log10 scale, so that one unit is a factor of ten.

The values are drawn from US7427623B2, “4-Amino-2,3-disubstituted thieno[2,3-d]pyrimidines and pharmacetical compositions thereof” (SmithKline Beecham Corporation, priority 2001, dated 2008).
